# Test results taken from article PMC8508660 (2021).
# Columns and labels:
# [1] = system: 22HT (DNA, G4) AGGGTTAGGGTTAGGGTTAGGG; assay: CD melting, 290 nm; details: 100 mM K+; 10 mM cacodylate pH 7.2; 2 µM DNA, 3 equiv. (6 µM) ligand; derived from two Tm (±0.5)
# [2] = system: 22HT (DNA, G4) AGGGTTAGGGTTAGGGTTAGGG; assay: CD melting, 295 nm; details: 100 mM Na+; 10 mM cacodylate pH 7.2; 2 µM DNA, 3 equiv. (6 µM) ligand; derived from two Tm (±0.5)
# [3] = system: c-MYC (DNA, G4) TGAGGGTGGGTAGGGTGGGTAA; assay: CD melting, 265 nm; details: 10 mM K+, 90 mM Li+; 10 mM cacodylate pH 7.2; 2 µM DNA, 3 equiv. (6 µM) ligand; derived from two Tm (±0.5)
# [4] = system: TBA (DNA, aptamer) GGTTGGTGTGGTTGG; assay: CD melting, 295 nm; details: 100 mM K+; 10 mM cacodylate pH 7.2; 2 µM DNA, 3 equiv. (6 µM) ligand; derived from two Tm (±0.5)
compound,measurement,setting,value
COc1nc2c(N)ncnc2[n+]2ccccc12,ΔTm,[1],0.7 °C
same,ΔTm,[2],-0.2 °C
same,ΔTm,[3],-0.2 °C
same,ΔTm,[4],-0.4 °C
